The results in this text go back to publication PMC4552634, “A New Set of Chemical Starting Points with Plasmodium falciparum Transmission-Blocking Potential for Antimalarial Drug Discovery” (PLoS ONE, 2015).

For the assay, the system named is P. falciparum stage V gametocytes. Put plainly: Gametocytocidal ATP bioluminescence assay (single point 5 μM and 1 μM, dose-response). Particulars: for inhibition at 5 µM: Plasmodium falciparum; for %_Inh: primary screen at 5 μM (S10 Table, MCSI analogs). It counts as cell-based, Plasmodium falciparum.
The mark [1] stands for this setting: P. falciparum gametocytes, 5 μM single concentration, 48 h, decrease of ATP level (S1 Table).
The mark [2] stands for this setting: gametocytes, primary screen at 5 μM (S9 Table, CSA analogs).

Each structure is given as a SMILES string.

Protocol: Purified stage IV-V gametocytes were obtained as previously described [10]. Single point ATP bioluminescence assay and dose–response of positive hits was determined in accordance with the previously published protocol [10].

In general, % Inhibition refers to the change of the read-out against control, counted positive when it falls. As to `OC(CN1CCN(c2cccc(Cl)c2)CC1)C(c1ccccc1)c1ccccc1` (stereo not drawn) [TCMDC-123456], under setting [1], the “% Inhibition” value stood at 0.238%.
On the same count and under the same terms, then `C1=C(c2c[nH]c3ccccc23)CCN(Cc2ccccc2)C1` [TCMDC-123457], with -71%; and `N=C(N)c1ccc(-c2cc3ccc(C(=N)N)cc3[nH]2)cc1` [TCMDC-123458], with 53%.
On the same count and under the same terms, then `Clc1ccc(-c2nc3ccc(-c4ccc5nc(-c6ccc(Cl)cc6)[nH]c5c4)cc3[nH]2)cc1` [TCMDC-123460], with 1.65%; and `Clc1ccc2c(NCCc3ccccn3)ccnc2c1` [TCMDC-123461], with 8%; and `N#Cc1c(N2CCN(c3ccc(F)cc3)CC2)nc(N)c2c(N)nc3c(c12)CC(=O)N3C1CC1` [TCMDC-124490], with 44%.
The same measure, in the same setting: then `CN(CC(=O)Nc1ccc(F)c(F)c1F)c1ncnc2sc(-c3ccccc3)cc12` [TCMDC-124491], with 23%; and `Cc1ccnc2nc(C(=O)Nc3cc(C(F)(F)F)ccc3N3CCCCC3)nn12` [TCMDC-124492], with -24%; and `CC(=O)c1c(C)[nH]c(C(=O)Nc2ccc(-c3nc4ccc(C)cc4s3)cc2)c1C` [TCMDC-124493], with 55%.
In the case of `CC1CCN(C(=O)C(Cc2c[nH]c3ccccc23)NS(=O)(=O)c2ccc(Cl)cc2)CC1` (stereo not drawn) [TCMDC-124494], the “% Inhibition” value under setting [1] came out at 54%.
Still for that read-out and setting: to `CC(CN1CCN(CC(c2ccc(F)cc2)N2CCN(C)CC2)CC1)C(=O)c1ccc(O)cc1.O=C(O)/C=C\C(=O)O` (stereo not drawn) [TCMDC-125496] belongs 30%; to `COc1ccc(Cl)cc1NC(=O)Nc1cc(C)nc2ccccc12` [TCMDC-125497], -50%.
Turning to `O=C1C(c2ccccc2)=C(Nc2cccc(OC(F)(F)C(F)F)c2)c2ccccc21` [TCMDC-125498], the “% Inhibition” value under setting [1] is given as 66%.
`Cc1ccc(Oc2ncccc2C(=O)Nc2cccc3cccnc23)c(C)c1` [TCMDC-125499]: the “% Inhibition” value under setting [1] is listed as -13%.
Still for that read-out and setting: then `COc1ccc(NC2=C(c3ccccc3)C(=O)c3ccccc32)cn1` [TCMDC-125501], with 37%; and `COc1cc2nc(C)nc(Nc3ccc(Cc4ccccc4)cc3)c2cc1OC` [TCMDC-131941], with 1.46%; and `Nc1nc(N)c2c(ccc3ccccc32)n1` [TCMDC-131942], with 19%.
In the case of `Nc1nc(N)c2c(Sc3ccccc3)cccc2n1` [TCMDC-131943], the “% Inhibition” value under setting [1] is on record as 9%.
Take `COc1cc2ncnc(Nc3ccc(OCc4ccccc4)c(I)c3)c2cc1OC` [TCMDC-131944]: under setting [1], the “% Inhibition” value is given as -25%.
The same measure, in the same setting: to `Ic1cc(Nc2ncnc3ccsc23)ccc1OCc1ccccc1` [TCMDC-131945] belongs 8%.
What is called inhibition is the drop in the measured response relative to a control, in per cent. For the molecule `c1ccc2[nH]c(-c3ccc(-c4ccc(CNC5CC5)cc4)s3)nc2c1` [TCMDC-132675], the inhibition at 5 µM under setting [2] was -17.6%.
In the case of `CN(C)CCNCc1ccc(-c2ccc(-c3nc4ccccc4[nH]3)s2)cc1` [TCMDC-132683], the inhibition at 5 µM under setting [2] was determined as 58.1%.
As to `Cc1cccc2nc(-c3ccc(-c4cccc(CNCc5ccc(CN)cc5)c4)s3)[nH]c12.O=C(O)C(F)(F)F` [TCMDC-132812], under “gametocytes”, the “%_Inh” value came to 115.306%.
In the case of `CNCCNCc1ccc(-c2ccc(-c3nc4ccccc4[nH]3)s2)cc1` [TCMDC-132824], the inhibition at 5 µM under setting [2] is 82.1%.
Consider `COC(=O)c1cccc(CNCc2cccc(-c3cccc(-c4nc5cc(F)ccc5[nH]4)c3)c2)c1` [TCMDC-132960], for which the inhibition at 5 µM under setting [1] stood at 6%.
For `COC(=O)c1cccc(CNCc2cccc(-c3cccc(-c4nc5ccccc5[nH]4)c3)c2)c1` [TCMDC-132961], the inhibition at 5 µM under setting [1] was 33%.
Regarding `c1ccc(-n2ncc(CNCc3ccc(-c4ccc(-c5nc6ccccc6[nH]5)s4)cc3)n2)cc1` [TCMDC-132962], the inhibition at 5 µM under setting [1] is 1%.
In the case of `Cc1cccc2nc(-c3cccc(-c4cccc(CNCc5cnn(-c6ccccc6)n5)c4)c3)[nH]c12` [TCMDC-132963], the inhibition at 5 µM under setting [1] is 8%.
For the molecule `FC(F)(F)c1ccc2[nH]c(-c3cccc(-c4ccc(CNCc5cnn(-c6ccccc6)n5)cc4)c3)nc2c1` [TCMDC-132964], the inhibition at 5 µM under setting [1] is 25%.
Turning to `Cc1cccc2nc(-c3ccc(-c4ccc(CN5CCN(C6CCN(C)CC6)CC5)cc4)s3)[nH]c12` [TCMDC-133866], the “%_Inh” value (gametocytes) was 106.989%.
Take `Cc1cccc(CN2CCC(Oc3ccc(NC(=O)c4cccs4)cc3Cl)CC2)n1` [TCMDC-133964]: the “% Inhibition” value under setting [1] stood at 24%.
On the same count and under the same terms, then `Cc1cc(NC(=O)c2ccco2)ccc1OC1CCN(Cc2ccccc2)CC1` [TCMDC-133965], with 12%; and `O=C(Nc1ccc(OC2CCN(Cc3ccccc3)CC2)c(Cl)c1)c1ccco1` [TCMDC-133966], with 63%; and `O=C(Nc1ccc(OC2CCN(Cc3ccccc3)CC2)c(Cl)c1)c1ccc(F)cc1` [TCMDC-133967], with 19%.
Take `Cc1cc(NC(=O)c2cccs2)ccc1OC1CCN(Cc2ccccc2)C1` (stereo not drawn) [TCMDC-133968]: the “% Inhibition” value under setting [1] is recorded as -2.76%.
On the same count and under the same terms, then `CN(c1cc(NC(=O)c2cccs2)ccn1)C1CCN(Cc2cccc(C#N)c2)CC1` [TCMDC-134970], with 40%; and `CC(=O)Nc1ccc(CN2CCC(N(C)c3cc(NC(=O)c4cccs4)ccn3)CC2)cc1` [TCMDC-134971], with -7%.
On the same count and under the same terms, then `CN(Cc1cccc(C#N)c1)C1CCN(c2cc(NC(=O)c3cccc(F)c3)ccn2)CC1` [TCMDC-134972], with 21%; and `Cc1cccc(C(=O)Nc2ccnc(N3CCC(N(C)Cc4cccc(C#N)c4)CC3)c2)c1` [TCMDC-134973], with -4.57%.
Still for that read-out and setting: then `CN(Cc1cccc(C#N)c1)C1CCN(c2cc(NC(=O)c3ccc(F)cc3)ccn2)CC1` [TCMDC-134974], with -6%; and `Cc1cccc(CN2CCCN(Cc3cccc(C(=O)Nc4ccc(C(C)(C)C)cc4)c3)CC2)c1` [TCMDC-135984], with -91%; and `CC(C)(C)c1ccc(NC(=O)c2cccc(CN3CCCN(Cc4ccc(F)cc4)CC3)c2)cc1` [TCMDC-135985], with -30%.
As to `COc1ccc(CN2CCCN(Cc3cccc(C(=O)Nc4ccc(C(C)(C)C)cc4)c3)CC2)cc1` [TCMDC-135986], under setting [1], the “% Inhibition” value was 5.59%.
Still for that read-out and setting: to `CCOc1ccc(NC(=O)c2cccc(CN3CCCN(Cc4cccc(O)c4)CC3)c2)cc1` [TCMDC-135987] belongs -5%.
On the same count and under the same terms, to `CCc1ccc(NC(=O)c2cccc(CN3CCCN(CC4CCCCC4)CC3)c2)cc1` [TCMDC-135988] belongs -39%.
For the molecule `CC(C)CN(C)Cc1ccc(-c2ccc(-c3nc4ccccc4[nH]3)s2)cc1` [TCMDC-136786], the inhibition at 5 µM under setting [2] is -17.4%.
Take `Cc1cccc2nc(-c3cccc(-c4cccc(NC(=O)Cc5ccc[n+]([O-])c5)c4)c3)[nH]c12` [TCMDC-136992]: under setting [1], the “% Inhibition” value is 25%.
`Cc1cccc2nc(-c3cccc(-c4ccc(NC(=O)Cc5ccc[n+]([O-])c5)cc4)c3)[nH]c12` [TCMDC-136993]: the “% Inhibition” value under setting [1] is given as -16%.
With `Cc1nc(C)c(CC(=O)Nc2ccc(-c3ccc(-c4nc5cc(C(F)(F)F)ccc5[nH]4)s3)cc2)s1` [TCMDC-136994], the inhibition at 5 µM under setting [1] came to 7%.
On to `Cc1nc(C)c(CC(=O)Nc2cccc(-c3cccc(-c4nc5ccc(C(F)(F)F)cc5[nH]4)c3)c2)s1` [TCMDC-136995], for which, under setting [1], the “% Inhibition” value is recorded as 4.51%.
As to `Cc1nc(C)c(CC(=O)Nc2ccc(-c3cccc(-c4nc5ccc(C(F)(F)F)cc5[nH]4)c3)cc2)s1` [TCMDC-136996], the “% Inhibition” value under setting [1] is given as -50%.
Same read-out and setting: then `COc1cc(Cc2cnc(N)nc2N)c2c(c1OC)OC(C)(C)C=C2` [TCMDC-138038], with -2.79%; and `C=CCc1cc(Cc2cnc(N)nc2N)cc(CCC)c1OC` [TCMDC-138039], with 23%; and `COc1cc(Cc2cnc(N)nc2N)cc(OCCCC#N)c1OC` [TCMDC-138040], with -4.21%.
With `COC(=O)CCCCOc1cc(Cc2cnc(N)nc2N)cc(OC)c1OC` [TCMDC-138041], the “% Inhibition” value under setting [1] was 2%.
As to `C=CCOc1cc(Cc2cnc(N)nc2N)cc(OC)c1OC` [TCMDC-138042], the “% Inhibition” value under setting [1] is listed as -4%.
The same measure, in the same setting: to `CNc1c2c(nc3ccc(NC(=O)CCCCCCc4ccccc4)cc13)CCCC2` [TCMDC-139066] belongs 79%; to `CO/C(=C\C=C\c1cc2cc(Cl)c(Cl)cc2[nH]1)C(=O)NC1CC2CCCC(C1)N2C` (stereo not drawn) [TCMDC-139067], 19%; to `O=C(Nc1ccc(CN2CCC(c3c[nH]c4ccc(O)cc34)CC2)cc1)c1ccc(-c2ccccc2)cc1` [TCMDC-139068], -139%.
The same measure, in the same setting: then `COc1ccc2[nH]cc(C3CCN(Cc4ccc(NC(=O)c5ccc(-c6ccccc6)cc5)cc4)CC3)c2c1` [TCMDC-139069], with 8%.
Same read-out and setting: then `Nc1ccnc2ccc(NC(=O)CCCCCc3ccccc3)cc12` [TCMDC-139070], with 2%.
As to `O=C(/C=C/c1ccc(Cl)c(Cl)c1)N1CCC(CCN2CCC(c3c[nH]c4ccncc34)CC2)CC1` [TCMDC-140075], the “% Inhibition” value under setting [1] came to 91%.
Consider `Cc1cc(NC(=O)Nc2ccc3nc(C)oc3c2)c2cc(Cl)ccc2n1` [TCMDC-140076], for which the “% Inhibition” value under setting [1] worked out at 38%.
On the same count and under the same terms, then `O=C(NCCCN1CCN(c2cccc(Cl)c2)CC1)c1ccc(-c2nc3cc(Cl)c(Cl)cc3[nH]2)cc1` [TCMDC-140077], with 1.64%; and `COc1cc(C(=O)NC2CCN(Cc3ccccc3)CC2)ccc1-c1nc2cc(Cl)c(Cl)cc2[nH]1` [TCMDC-140078], with -56%.
For `COc1cc(C(=O)NCCCN2CCN(c3cc(Cl)ccc3OC)CC2)ccc1-c1nc2cc(Cl)c(Cl)cc2[nH]1` [TCMDC-140079], the “% Inhibition” value under setting [1] was 4.42%.
In the case of `COc1ccc2nccc([C@@H](O)CN3CCC(NCc4ccc5scnc5c4)CC3)c2c1` [TCMDC-141081], the “% Inhibition” value under setting [1] was found to be 10%.
Still for that read-out and setting: then `CNC(=O)c1cc(NCCCNCc2ccc(Cl)c(C(F)(F)F)c2)nc2ccccc12` [TCMDC-141082], with 73%; and `COc1ccc2nccc([C@@H](O)CN3CCC(NCc4nc5c(OCc6ccccc6)cccc5[nH]4)CC3)c2c1` [TCMDC-141083], with 34%.
